This note sets out measurements from patent US12247320B2, “Multivalent glycopeptides that tightly bind to carbohydrate-binding monoclonal antibody family PGT128” (BRANDEIS UNIVERSITY, priority 2018, dated 2025).

A short description of data set [1]: Solubility seen during reduction and cyclization of the synthetic peptide. It counts as physicochemical. To be noted: reduced peptide in 200 mM NH4HCO3 with 10 mM TCEP, not glycosylated. As for the experimental part: Then, 9 mg of crude peptide was reduced and cyclized as follows. Each peptide (1 mM final concentration) was dissolved in 200 mM NH4HCO3 with 10 mM TCEP for a reaction volume of 1332 μL. The reactions were tumbled at room temperature for 50 minutes. At that time, the reactions were buffer-exchanged to remove excess TCEP. […] The pellet was washed six times with 1 mL portions of 200 mM NH4HCO3. Portions of the H-22 reaction were transferred to Centricon-500 spin columns (MWCO 2 kDa) with 300 μL of 200 mM NH4HCO3. The filters were spun down and washed six times with 300 μL of 200 mM NH4HCO3. The solutions were then diluted to 1322 μL with 200 mM NH4HCO3, 5.95 mL of water, and 5.68 mL of MeCN in a 15 mL conical tube. Then, 529 μL of a solution of 5 mM m-dibromoxylene in MeCN was added, for a final concentration of 0.2 mM of m-dibromoxylene and 0.1 mM peptide. The cyclization reactions were tumbled at room temperature and monitored by LC-MS. After 40 minutes, H22 was complete. At that time, 132 μL of 5 mM m-dibromoxylene in MeCN was added to the H-1 reaction to push it to completion (total reaction time: 140 minutes). The reactions were quenched by lowering the pH with formic acid. The solutions were concentrated under reduced pressure and lyophilized overnight.

The target in a further data set is PGT128. The experiment in a line: Binding of radiolabeled, cyclized, glycosylated peptides to PGT128 (Protein G bead capture, scintillation counting). Particulars: for Kd: after affinity purification with 100 nM PGT128. As for the experimental part:
Radioactive Peptides. For binding analysis, translation (50 μL) was carried out in the presence of PDF/MAP and ^3H-histidine for radiolabeling. The crude peptides were purified by Ni-NTA agarose or, if the sequence contained two cysteine residues, was cyclized while captured on the Ni-NTA resin. The peptide eluents were combined and dialyzed as follows. To the combined eluents was added a solution of Triton X-100 in water for a final concentration of 0.1%. Then, the peptides were dialyzed against 0.1% (v/v) Triton X-100 using a Slide-A-Lyzer™ MINI device (0.1 mL capacity, 3.5 kDa MWCO) (ThermoScientific) at room temperature overnight. The dialyzed peptides were retrieved from the devices, transferring to 0.5 mL centrifuge tubes. The peptide solutions were concentrated to dryness by speedvac for the click reaction.
Sequences were screened for their binding to PGT128 as follows. Each glycosylated peptide (20 fmol) was incubated with either 0 nM or 100 nM PGT128, diluted to 20 μL with 1× selection buffer, tumbling for 1 hour at room temperature. While tumbling, Dynabeads™ Protein G (Invitrogen) were equilibrated with 1× selection buffer as follows. Steps were carried out using a multi-channel pipettor where possible. For each sequence, 5 μL of Protein G bead suspension was transferred to a 0.2 mL PCR tube in a strip. Then, 40 μL of 1× selection buffer was added to the beads. The mixture was resuspended by gently vortexing, spun down briefly, and placed on a magnet for 1 minute. The supernatant was removed, and this wash was repeated two more times. The final supernatant was removed just prior to addition of the incubated peptide/antibody mixture. The mixture was allowed to tumble at room temperature for 30 minutes to capture antibodies and bound peptides. Then, the suspension was briefly spun down, placed on a magnet, and the supernatant was transferred to an individual 0.2 mL PCR tube. To wash the beads, 20 μL of 1× selection buffer was added, gently vortexed, spun down briefly, placed on a magnet for 1 minute, and the wash was transferred to the same PCR tube as the supernatant. This wash step was repeated twice more for a total of three washes, saved altogether with the supernatant as the “unbound” fraction. The beads were then resuspended in 40 μL of denaturing elute buffer. The suspension was heated at 95° C. for 5 minutes to denature antibodies, spun down briefly, placed on a magnet for 1 minute, and the eluent was transferred to an individual 0.2 mL PCR tube. The beads were washed with 40 μL of denaturing elute buffer, and the wash was placed into the same tube as the eluent. The combined eluent and wash represented the “bound” fraction. The beads were resuspended in 40 μL of denaturing elute buffer, vortexed, and directly placed into a vial with liquid scintillation cocktail for radioactivity measurements, though it was not included in calculations of fraction bound. Each of the tubes with the “unbound” and “bound” fractions were placed into vials for LSC. The tube in which the antibody and peptides were incubated were also measured by LSC, but not included in calculations of fraction bound.
Cyclized and glycosylated peptides 91-8 (SEQ ID NO:74) and 91-12 (SEQ ID NO:76) (Heavily Biased library) were subject to PGT128 affinity purification. The sequences (0.3 μmol) were each incubated with 100 nM PGT128, diluted to 40 μL with 1× selection buffer, tumbling for 1 hour at room temperature. The antibody/peptide complexes were captured on equilibrated Protein G (10 μL) and washed as described previously. The bound fraction was then eluted as follows. The beads were resuspended in 10 μL of 1× selection buffer and heated at 70° C. for 30 minutes. Then, the suspension was chilled on ice for 5 minutes, and tumbled at room temperature for 10 minutes. The eluent was separated, and the beads were washed with 10 μL of 1× selection buffer. The wash was combined with the eluent as the “bound” fraction. […]

Where [2] appears, read: before PGT128 affinity purification.
[3] abbreviates: following PGT128 affinity purification.

Take “YTEKHNGIGDIRPAICXNSKNQNHRCNHYQIKLYIHXLXRLPHNYRNS [H-1, Top round 12 PGT128 cluster, Heavily Biased library; made by SPPS with C-terminal biotinyl-lysine]”: in data set [1], the solubility result is reported as “poor solubility”.

Regarding “XYPNTLNNVYQKCNKYNVIGDIRXARCXHXEHFSSQDQPKSKHKRRYKGF [91-12cy]”, at PGT128, binding was characterised by a dissociation constant (Kd) of 7.41 ± 1.29 nM. Also, the maximum fraction bound turned out to be 54% in the data set on PGT128 (setting [2]) and 74% in the data set with PGT128 (setting [3]).

On PGT128, “MAHYSXNHXRHPLYPSVNHRXSYPRIGLLSRIGDIRSASCXLRCFRXRST [91-8cy]” returned a Kd of 2.73 ± 0.36 nM. The maximum fraction bound in the data set on PGT128 (setting [2]) is given as 69%; in the data set with PGT128 (setting [3]) it was 85%.

In general, Kd refers to the constant that tells how readily two partners part at equilibrium. Low values mean tighter binding, high ones weaker binding.
